Assay results as given in ChEMBL document CHEMBL1151784, “Antibiotic evaluation and in vivo analysis of alkynyl Coenzyme A antimetabolites in Escherichia coli” (2008).
Converted amounts (≈) assume the structure as drawn.

Tests used:
Type in all cases: functional
Conditions in all cases: K12, 24 h
Escherichia coli [1] = experiment: Antibacterial activity against Escherichia coli K12 in M9 minimal medium after 24 hrs by broth dilution method
Escherichia coli [2] = experiment: Antibacterial activity against Escherichia coli K12 in tryptone broth after 24 hrs by broth dilution method
Escherichia coli [3] = experiment: Antibacterial activity against Escherichia coli K12 in M9 minimal medium after 24 hrs by broth dilution method in presence of pantothenate
Escherichia coli [4] = experiment: Antibacterial activity against Escherichia coli K12 in M9 minimal medium after 24 hrs by broth dilution method in presence of beta-alanine

Row | SMILES | MIC (Escherichia coli [1]) | MIC (Escherichia coli [2]) | MIC (Escherichia coli [3]) | MIC (Escherichia coli [4])
1 | C#CCCCCNC(=O)CCNC(=O)[C@H](O)C(C)(C)CO | 500 µM (≈ 149 µg/mL) | > 500 µM | – | –
2 | CCC(=O)OCCNC(=O)CCNC(=O)[C@H](O)C(C)(C)CO | 500 µM (≈ 159 µg/mL) | > 500 µM | – | –
3 | C#CCCNC(=O)CCNC(=O)[C@H](O)C(C)(C)CO | 7.5 µM (≈ 2.03 µg/mL) | > 500 µM | > 500 µM | > 500 µM
4 | C=CCNC(=O)CCNC(=O)[C@H](O)C(C)(C)CO | 3 µM (≈ 0.775 µg/mL) | > 500 µM | 250 µM | 125 µM
5 | C=CC(=O)NCCNC(=O)CCNC(=O)[C@H](O)C(C)(C)CO | 500 µM (≈ 158 µg/mL) | > 500 µM | – | –
6 | C#CCNC(=O)CCNC(=O)[C@H](O)C(C)(C)CO | 4 µM (≈ 1.03 µg/mL) | > 500 µM | > 500 µM | > 500 µM
7 | C#CCNC(=O)[C@H](O)C(C)(C)CO | 500 µM (≈ 92.6 µg/mL) | > 500 µM | – | –
8 | CCOC(=O)NCCNC(=O)CCNC(=O)[C@H](O)C(C)(C)CO | > 500 µM | > 500 µM | – | –
9 | C#CC(=O)NCCNC(=O)CCNC(=O)[C@H](O)C(C)(C)CO | > 500 µM | > 500 µM | – | –
10 | CCCCCNC(=O)CCNC(=O)[C@H](O)C(C)(C)CO | 6 µM (≈ 1.73 µg/mL) | 50 µM (≈ 14.4 µg/mL) | 500 µM | 250 µM
11 | CCC(=O)NCCNC(=O)CCNC(=O)[C@H](O)C(C)(C)CO | > 500 µM | > 500 µM | – | –
12 | CC(C)(CO)[C@@H](O)C(=O)NCCC(=O)NCCN=[N+]=[N-] | > 500 µM | > 500 µM | – | –
13 | C#CCCC(=O)NCCNC(=O)CCNC(=O)[C@H](O)C(C)(C)CO | > 500 µM | > 500 µM | – | –
14 | CCCNC(=O)CCNC(=O)[C@H](O)C(C)(C)CO | 1 µM (≈ 0.26 µg/mL) | 500 µM (≈ 130 µg/mL) | 500 µM | 250 µM
15 | C#CCCCNC(=O)CCNC(=O)[C@H](O)C(C)(C)CO | 15 µM (≈ 4.27 µg/mL) | > 500 µM | > 500 µM | > 500 µM
